Laboratory results published in patent publication US10597378B2 (priority 2017, dated 2020).
pEC50: −log10 of the molar value. Where two headings read alike, the source gives them in different places.

Target: MOR (Homo sapiens, UniProt P35372)
Test: cell-based
Set-up: expressed in transfected cells; host or cells: CHO-K1/MOR/Ga15 cells
Details: for FLIPR Ca2+ AUC: area under the [Ca2+]i fluorescence response curve, up to 90 s
Experimental: In an exemplary in vitro assay for identifying MOR agonists, cells that express a MOR are treated with a test compound in a cellular calcium fluorescent assay and calcium fluorescence intensity is then measured to determine whether the MOR is activated. A test compound is identified as a MOR agonist if the MOR is activated.
EC50 herein refers to the concentration of a compound that induces a response halfway between the baseline and the maximum after a specified exposure time. AUC refers to the area under the response curve, an indication of the compound's capability of activating a MOR.
One day before the assay, CORNING® black with clear flat bottom 96-well assay plates were coated with a 0.1 mg/mL Poly-L-Lysine solution. CHO-K1/MOR/Ga15 cells were suspended in the F12 medium and plated at a density of about 8×10^4 cells/well in […] medium. Cells were incubated in a humidified atmosphere of 10% CO2 at 37° C. overnight so as to reach an 80-90% confluent cell monolayer before the assay. On the day of the assay, 150 μL medium/well was removed from plate. […] Compounds and other reagents were dissolved in the assay buffer. […] The [Ca^2+]i fluorescence was measured up to 90 s after agonist injection.

[1] = CHO-K1/MOR/Ga15 cells, read-out: FLIPR Ca2+ EC50

Sequence of MOR (P35372 whole entry): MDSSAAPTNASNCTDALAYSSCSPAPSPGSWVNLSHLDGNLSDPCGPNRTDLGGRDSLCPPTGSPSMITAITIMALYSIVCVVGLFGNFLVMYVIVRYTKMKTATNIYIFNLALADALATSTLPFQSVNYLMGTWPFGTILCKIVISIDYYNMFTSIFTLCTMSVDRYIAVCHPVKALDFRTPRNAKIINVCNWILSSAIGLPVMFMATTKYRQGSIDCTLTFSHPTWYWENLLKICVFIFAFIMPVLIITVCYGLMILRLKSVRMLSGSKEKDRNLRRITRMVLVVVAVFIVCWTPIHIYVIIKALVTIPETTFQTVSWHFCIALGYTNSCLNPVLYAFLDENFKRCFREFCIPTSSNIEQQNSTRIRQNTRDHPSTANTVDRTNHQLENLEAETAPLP

Row | SMILES | pEC50 | FLIPR Ca2+ AUC | pEC50 [1] | pEC50 (read-out: FLIPR Ca2+ EC50)
1 | Cc1ccc(S(=O)(=O)N2CCc3ccccc3C2CNC(=O)C2CCCCC2)cc1 (stereo not drawn) [Compound 18, N-({2-[(4-Methylphenyl)sulfonyl]-1,2,3,4-tetrahydro-1-isoquinolinyl}methyl)cyclohexanecarboxamide] | 5.19 | 6808 | – | –
2 | O=C(NCC1c2ccccc2CCN1S(=O)(=O)c1ccc(Br)cc1)C1CCCCC1 (stereo not drawn) [Compound 9, N-({2-[(4-Bromophenyl)sulfonyl]-1,2,3,4-tetrahydro-1-isoquinolinyl}methyl)cyclohexanecarboxamide] | – | 6103 | 5.05 | –
3 | COc1ccc(S(=O)(=O)N2CCc3ccccc3C2CNC(=O)C2CCCCC2)cc1 (stereo not drawn) [Compound 19, N-({2-[(4-Methoxyphenyl)sulfonyl]-1,2,3,4-tetrahydro-1-isoquinolinyl}methyl)cyclohexanecarboxamide] | – | 3418 | 5.11 | –
4 | Cc1ccc(C(=O)NCC2c3ccccc3CCN2C)cc1C (stereo not drawn) [Compound 66, 3,4-Dimethyl-N-[(2-methyl-1,2,3,4-tetrahydro-1-isoquinolinyl)methyl]benzamide] | – | 17393 | 8.00 | –
5 | CC1CCC(C(=O)NCC2c3ccccc3CCN2S(=O)(=O)c2ccc(Br)cc2OC(F)(F)F)CC1 (stereo not drawn) [Compound 20, N-[(2-{[4-Bromo-2-(trifluoromethoxy)phenyl]sulfonyl}-1,2,3,4-tetrahydro-1-isoquinolinyl)methyl]-4-methylcyclohexanecarboxamide] | – | – | 6.01 | –
6 | O=C(NCC1c2ccccc2CCN1S(=O)(=O)c1ccc(Br)cc1Cl)C1CCCCC1 (stereo not drawn) [Compound 11, N-({2-[(4-Bromo-2-chlorophenyl)sulfonyl]-1,2,3,4-tetrahydro-1-isoquinolinyl}methyl)cyclohexanecarboxamide] | 5.25 | 7597 | – | –
7 | O=C(NCC1NCCc2ccccc21)c1ccc(Cl)c(Cl)c1 (stereo not drawn) [Compound 59, 3,4-Dichloro-N-(1,2,3,4-tetrahydro-1-isoquinolinylmethyl)benzamide] | – | – | – | 6.60
8 | O=C(NCC1NCCc2ccccc21)C1CCC1 (stereo not drawn) [Compound 44, N-(1,2,3,4-Tetrahydro-1-isoquinolinylmethyl)cyclobutanecarboxamide] | – | 3646 | 5.17 | –
9 | COc1cccc(C(=O)NCC2NCCc3ccccc32)c1 (stereo not drawn) [Compound 51, 3-Methoxy-N-(1,2,3,4-tetrahydro-1-isoquinolinylmethyl)benzamide] | – | 13302 | 6.07 | –
10 | CCc1ccc(C(=O)NCC2c3ccccc3CCN2C)cc1 (stereo not drawn) [Compound 65, 4-Ethyl-N-[(2-methyl-1,2,3,4-tetrahydro-1-isoquinolinyl)methyl]benzamide] | – | 18367 | 8.00 | –
11 | O=C(NCC1c2ccccc2CCN1S(=O)(=O)c1ccc(Br)cc1OC(F)(F)F)C1CC1 (stereo not drawn) [Compound 28, N-[(2-{[4-Bromo-2-(trifluoromethoxy)phenyl]sulfonyl}-1,2,3,4-tetrahydro-1-isoquinolinyl)methyl]cyclopropanecarboxamide] | – | 11880 | 5.30 | –
12 | O=C(NCC1NCCc2ccccc21)c1ccccc1F (stereo not drawn) [Compound 57, 2-Fluoro-N-(1,2,3,4-tetrahydro-1-isoquinolinylmethyl)benzamide] | – | 12102 | 5.48 | –
13 | CCCCN1CCc2ccccc2C1CNC(=O)c1ccc(C)cc1 (stereo not drawn) [Compound 62, N-[(2-Butyl-1,2,3,4-tetrahydro-1-isoquinolinyl)methyl]-4-methylbenzamide] | – | 14669 | 6.80 | –
14 | O=C(NCC1NCCc2ccccc21)C1CCCC1 (stereo not drawn) [Compound 43, N-(1,2,3,4-Tetrahydro-1-isoquinolinylmethyl)cyclopentanecarboxamide] | – | 5768 | 5.05 | –
15 | CCc1ccc(C(=O)NCC2NCCc3ccccc32)cc1 (stereo not drawn) [Compound 50, 4-Ethyl-N-(1,2,3,4-tetrahydro-1-isoquinolinylmethyl)benzamide] | – | – | – | 7.22
